pIC50: −log10 of the molar value.
What was measured:
[1] = target: cGMP-dependent 3',5'-cyclic phosphodiesterase (Homo sapiens, UniProt O00408); experiment: Inhibition of PDE2 (unknown origin)
[2] = target: Phosphodiesterase 4 (Homo sapiens, UniProt P27815+Q08499+Q07343+Q08493); experiment: Inhibition of PDE4 (unknown origin); assay type: protein assay
[3] = Inhibition of adenosine transporter in human HeLa cells assessed as reduction in [3H]adenosine uptake preincubated for 30 mins followed by [3H]adenosine addition and measured after 60 mins; assay type: ADME, cell-based
[4] = Protein binding in Wistar Han rat plasma; assay type: ADME, cell-free; settings: read-out: PPB (converted)
[5] = Plasma clearance in Wistar Han rat at 0.5 mg/kg, iv or 1 mg/kg, po; assay type: ADME, organism-based
[6] = target: PI3-kinase p110-alpha/p85-alpha (Homo sapiens, UniProt P42336); experiment: Inhibition of N-terminal His6-tagged recombinant full length human p110alpha/untagged recombinant full length human p85alpha expressed in baculovirus infected Sf21 insect cells using PIP2 as substrate preincubated for 15 mins followed by substrate addition and measured after 1 hr by HTRF assay
Chain of PI3-kinase p110-alpha/p85-alpha (P27986 whole entry): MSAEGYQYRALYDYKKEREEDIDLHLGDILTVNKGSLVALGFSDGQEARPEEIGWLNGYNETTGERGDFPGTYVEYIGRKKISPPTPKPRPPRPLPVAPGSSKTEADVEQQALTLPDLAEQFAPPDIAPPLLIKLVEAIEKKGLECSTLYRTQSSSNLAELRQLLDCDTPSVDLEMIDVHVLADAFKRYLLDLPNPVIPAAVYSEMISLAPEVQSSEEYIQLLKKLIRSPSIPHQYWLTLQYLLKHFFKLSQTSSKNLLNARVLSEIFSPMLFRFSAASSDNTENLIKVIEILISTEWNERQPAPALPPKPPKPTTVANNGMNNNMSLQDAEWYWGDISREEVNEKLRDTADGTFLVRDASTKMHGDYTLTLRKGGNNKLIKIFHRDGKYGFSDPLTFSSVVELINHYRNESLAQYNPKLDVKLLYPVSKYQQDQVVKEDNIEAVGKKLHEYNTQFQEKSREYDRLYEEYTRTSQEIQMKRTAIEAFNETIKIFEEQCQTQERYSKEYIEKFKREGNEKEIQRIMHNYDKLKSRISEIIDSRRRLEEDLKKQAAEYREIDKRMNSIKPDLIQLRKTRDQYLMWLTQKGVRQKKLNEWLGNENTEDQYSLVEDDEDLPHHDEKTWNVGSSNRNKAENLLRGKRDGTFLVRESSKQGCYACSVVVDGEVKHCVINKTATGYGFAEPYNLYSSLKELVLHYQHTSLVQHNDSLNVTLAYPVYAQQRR
Chain of PI3-kinase p110-alpha/p85-alpha (P42336 whole entry): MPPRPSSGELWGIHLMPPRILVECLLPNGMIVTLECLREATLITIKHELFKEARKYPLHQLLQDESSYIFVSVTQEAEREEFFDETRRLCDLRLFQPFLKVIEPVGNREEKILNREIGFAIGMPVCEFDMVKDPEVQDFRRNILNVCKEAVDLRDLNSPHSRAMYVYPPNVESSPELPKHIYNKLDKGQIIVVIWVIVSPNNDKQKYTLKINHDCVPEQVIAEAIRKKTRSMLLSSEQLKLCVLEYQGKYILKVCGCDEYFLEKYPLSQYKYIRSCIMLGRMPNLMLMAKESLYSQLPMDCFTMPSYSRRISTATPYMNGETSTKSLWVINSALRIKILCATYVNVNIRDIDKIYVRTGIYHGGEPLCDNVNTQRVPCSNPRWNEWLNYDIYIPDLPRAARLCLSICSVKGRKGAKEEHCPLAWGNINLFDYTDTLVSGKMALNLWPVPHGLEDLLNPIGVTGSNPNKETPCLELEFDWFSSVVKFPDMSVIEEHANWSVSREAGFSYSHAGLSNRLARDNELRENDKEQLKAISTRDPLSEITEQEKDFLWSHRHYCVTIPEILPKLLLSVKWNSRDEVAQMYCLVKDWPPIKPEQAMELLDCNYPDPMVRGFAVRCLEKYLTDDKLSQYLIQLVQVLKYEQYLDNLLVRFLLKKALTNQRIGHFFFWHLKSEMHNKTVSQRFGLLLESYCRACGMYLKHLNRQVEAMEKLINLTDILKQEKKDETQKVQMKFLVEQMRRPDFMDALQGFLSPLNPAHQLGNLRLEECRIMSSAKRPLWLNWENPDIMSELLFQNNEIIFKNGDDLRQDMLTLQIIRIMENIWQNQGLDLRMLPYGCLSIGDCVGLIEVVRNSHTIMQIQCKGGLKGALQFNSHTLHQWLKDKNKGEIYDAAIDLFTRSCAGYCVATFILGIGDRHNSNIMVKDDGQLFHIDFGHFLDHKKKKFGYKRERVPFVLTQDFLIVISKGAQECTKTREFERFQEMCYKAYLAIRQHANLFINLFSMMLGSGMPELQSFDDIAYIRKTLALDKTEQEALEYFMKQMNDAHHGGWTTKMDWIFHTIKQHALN

[7] = target: Phosphodiesterase 6; experiment: Inhibition of PDE6 (unknown origin); assay type: protein assay, Homo sapiens
[8] = target: Phosphodiesterase 3 (Homo sapiens, UniProt Q14432+Q13370); experiment: Inhibition of PDE3 (unknown origin); assay type: protein assay
[9] = target: High affinity cAMP-specific and IBMX-insensitive 3',5'-cyclic phosphodiesterase 8A (Homo sapiens, UniProt O60658); experiment: Inhibition of PDE8 (unknown origin)
Chain of High affinity cAMP-specific and IBMX-insensitive 3',5'-cyclic phosphodiesterase 8A (O60658 whole entry): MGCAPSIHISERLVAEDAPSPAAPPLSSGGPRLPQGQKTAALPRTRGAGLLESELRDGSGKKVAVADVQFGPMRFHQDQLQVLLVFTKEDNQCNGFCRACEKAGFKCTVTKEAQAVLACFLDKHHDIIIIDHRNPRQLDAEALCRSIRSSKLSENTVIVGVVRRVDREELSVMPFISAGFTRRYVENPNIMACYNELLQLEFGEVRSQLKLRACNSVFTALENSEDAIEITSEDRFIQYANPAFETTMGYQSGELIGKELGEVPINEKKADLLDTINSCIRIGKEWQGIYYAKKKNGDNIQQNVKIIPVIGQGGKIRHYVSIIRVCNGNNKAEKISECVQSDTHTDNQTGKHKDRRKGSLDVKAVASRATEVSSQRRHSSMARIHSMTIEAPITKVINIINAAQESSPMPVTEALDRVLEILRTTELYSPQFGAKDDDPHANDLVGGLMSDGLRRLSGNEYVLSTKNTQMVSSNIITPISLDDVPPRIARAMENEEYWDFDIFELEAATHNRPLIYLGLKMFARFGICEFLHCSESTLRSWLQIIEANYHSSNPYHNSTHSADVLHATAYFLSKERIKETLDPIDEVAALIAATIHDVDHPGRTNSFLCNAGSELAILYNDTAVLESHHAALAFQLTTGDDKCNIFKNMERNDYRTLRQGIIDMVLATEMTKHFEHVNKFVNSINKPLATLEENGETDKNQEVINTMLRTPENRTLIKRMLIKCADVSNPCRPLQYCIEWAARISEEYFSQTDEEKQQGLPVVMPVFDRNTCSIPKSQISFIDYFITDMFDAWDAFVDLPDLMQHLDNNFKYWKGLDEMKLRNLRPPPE

[10] = target: cAMP and cAMP-inhibited cGMP 3',5'-cyclic phosphodiesterase 10A (Homo sapiens, UniProt Q9Y233); experiment: Inhibition of PDE10 (unknown origin)
Chain of cAMP and cAMP-inhibited cGMP 3',5'-cyclic phosphodiesterase 10A (Q9Y233 whole entry, canonical isoform): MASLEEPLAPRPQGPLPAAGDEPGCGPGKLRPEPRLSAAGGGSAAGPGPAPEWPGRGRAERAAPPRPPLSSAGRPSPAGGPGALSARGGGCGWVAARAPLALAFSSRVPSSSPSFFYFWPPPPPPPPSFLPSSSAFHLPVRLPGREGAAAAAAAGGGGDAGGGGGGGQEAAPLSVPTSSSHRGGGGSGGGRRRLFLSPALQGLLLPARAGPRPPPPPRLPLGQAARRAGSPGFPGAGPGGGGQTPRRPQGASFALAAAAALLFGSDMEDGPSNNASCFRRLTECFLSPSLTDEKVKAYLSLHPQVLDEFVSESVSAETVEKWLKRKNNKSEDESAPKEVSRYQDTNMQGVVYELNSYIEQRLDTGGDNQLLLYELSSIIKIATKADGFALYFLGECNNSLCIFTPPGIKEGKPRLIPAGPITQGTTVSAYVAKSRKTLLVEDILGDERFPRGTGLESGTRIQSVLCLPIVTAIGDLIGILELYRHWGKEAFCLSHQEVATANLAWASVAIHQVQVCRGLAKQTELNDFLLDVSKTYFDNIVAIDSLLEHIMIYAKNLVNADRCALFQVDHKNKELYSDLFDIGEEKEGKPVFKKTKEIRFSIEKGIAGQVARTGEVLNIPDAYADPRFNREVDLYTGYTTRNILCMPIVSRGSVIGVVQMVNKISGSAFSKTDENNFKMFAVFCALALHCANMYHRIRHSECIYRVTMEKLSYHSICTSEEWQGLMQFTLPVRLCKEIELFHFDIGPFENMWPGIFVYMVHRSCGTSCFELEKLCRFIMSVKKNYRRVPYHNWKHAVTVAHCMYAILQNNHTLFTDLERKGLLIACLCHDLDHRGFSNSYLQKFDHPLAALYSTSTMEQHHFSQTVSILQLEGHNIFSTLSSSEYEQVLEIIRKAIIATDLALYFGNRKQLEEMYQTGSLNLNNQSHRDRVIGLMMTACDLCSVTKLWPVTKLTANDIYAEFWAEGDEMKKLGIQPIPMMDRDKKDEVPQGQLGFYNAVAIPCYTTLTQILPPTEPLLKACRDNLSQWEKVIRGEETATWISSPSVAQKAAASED

[11] = target: T1, Phosphatidylinositol 4,5-bisphosphate 3-kinase catalytic subunit delta isoform (Homo sapiens, UniProt O00329); experiment: Inhibition of PI3Kdelta in human Ramos cells assessed as reduction in anti-IgM-antibody-induced phosphorylation of AKT at Ser473 residue preincubated for 20 mins followed by anti-IgM antibody stimulation and measured after 30 mins by alphascreen assay; assay type: cell-based
T1 sequence (O00329 whole entry): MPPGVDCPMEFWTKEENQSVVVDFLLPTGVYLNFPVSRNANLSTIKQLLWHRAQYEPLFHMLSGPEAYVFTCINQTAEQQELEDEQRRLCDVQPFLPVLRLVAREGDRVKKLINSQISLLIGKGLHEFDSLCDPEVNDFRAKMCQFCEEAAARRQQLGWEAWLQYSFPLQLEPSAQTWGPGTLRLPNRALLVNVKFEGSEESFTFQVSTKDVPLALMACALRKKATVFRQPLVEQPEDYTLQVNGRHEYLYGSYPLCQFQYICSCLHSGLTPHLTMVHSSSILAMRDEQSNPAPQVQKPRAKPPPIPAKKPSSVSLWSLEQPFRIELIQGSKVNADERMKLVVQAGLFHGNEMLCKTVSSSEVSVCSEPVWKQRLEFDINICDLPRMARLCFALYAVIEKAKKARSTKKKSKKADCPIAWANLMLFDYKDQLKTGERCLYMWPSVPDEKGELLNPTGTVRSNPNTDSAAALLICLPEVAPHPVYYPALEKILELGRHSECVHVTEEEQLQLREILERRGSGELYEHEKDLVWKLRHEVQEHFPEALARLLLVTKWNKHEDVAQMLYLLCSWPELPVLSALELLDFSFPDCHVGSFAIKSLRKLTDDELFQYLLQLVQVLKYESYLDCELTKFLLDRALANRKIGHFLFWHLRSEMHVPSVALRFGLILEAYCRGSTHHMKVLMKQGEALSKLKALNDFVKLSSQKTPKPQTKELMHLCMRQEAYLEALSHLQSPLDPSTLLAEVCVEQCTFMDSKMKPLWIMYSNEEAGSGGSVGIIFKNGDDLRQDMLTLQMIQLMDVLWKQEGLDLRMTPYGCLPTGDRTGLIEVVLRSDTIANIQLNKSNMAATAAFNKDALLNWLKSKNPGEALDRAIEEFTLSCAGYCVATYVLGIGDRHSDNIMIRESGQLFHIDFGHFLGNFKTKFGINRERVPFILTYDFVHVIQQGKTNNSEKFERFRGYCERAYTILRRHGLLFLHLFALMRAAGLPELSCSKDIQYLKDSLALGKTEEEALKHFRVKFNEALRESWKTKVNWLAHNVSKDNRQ

[12] = target: Phosphodiesterase 1 (Homo sapiens, UniProt P54750+Q01064+Q14123); experiment: Inhibition of PDE1 (unknown origin); assay type: protein assay
[13] = target: Dual 3',5'-cyclic-AMP and -GMP phosphodiesterase 11A (Homo sapiens, UniProt Q9HCR9); experiment: Inhibition of PDE11 (unknown origin)
Chain of Dual 3',5'-cyclic-AMP and -GMP phosphodiesterase 11A (Q9HCR9 whole entry): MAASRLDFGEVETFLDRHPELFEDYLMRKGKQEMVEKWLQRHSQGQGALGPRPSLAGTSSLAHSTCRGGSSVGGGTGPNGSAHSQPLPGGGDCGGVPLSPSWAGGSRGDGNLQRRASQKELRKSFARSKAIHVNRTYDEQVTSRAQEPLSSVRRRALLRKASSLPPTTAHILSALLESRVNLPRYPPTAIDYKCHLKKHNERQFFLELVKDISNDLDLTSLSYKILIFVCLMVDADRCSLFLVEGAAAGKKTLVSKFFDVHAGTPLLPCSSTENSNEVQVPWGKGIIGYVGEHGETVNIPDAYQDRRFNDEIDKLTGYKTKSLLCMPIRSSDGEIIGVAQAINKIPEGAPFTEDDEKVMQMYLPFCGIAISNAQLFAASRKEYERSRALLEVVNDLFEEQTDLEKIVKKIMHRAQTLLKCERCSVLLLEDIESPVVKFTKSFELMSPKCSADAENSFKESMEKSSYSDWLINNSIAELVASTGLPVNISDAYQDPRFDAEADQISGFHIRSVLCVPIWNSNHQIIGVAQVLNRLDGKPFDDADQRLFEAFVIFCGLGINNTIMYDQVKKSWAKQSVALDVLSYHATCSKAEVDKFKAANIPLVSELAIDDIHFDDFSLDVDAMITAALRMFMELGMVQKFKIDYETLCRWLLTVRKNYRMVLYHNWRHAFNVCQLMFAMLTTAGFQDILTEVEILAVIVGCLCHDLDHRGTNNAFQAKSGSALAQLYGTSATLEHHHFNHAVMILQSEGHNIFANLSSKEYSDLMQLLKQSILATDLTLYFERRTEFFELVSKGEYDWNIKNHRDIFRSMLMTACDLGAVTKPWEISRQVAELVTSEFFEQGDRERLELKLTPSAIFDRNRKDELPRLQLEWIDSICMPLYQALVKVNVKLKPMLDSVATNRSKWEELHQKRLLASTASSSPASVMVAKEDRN

[14] = target: PI3-kinase p110-delta/p85-alpha (Homo sapiens, UniProt O00329); experiment: Inhibition of N-terminal His6-tagged recombinant full length human p110delta/untagged recombinant full length human p85alpha expressed in baculovirus infected Sf21 insect cells using PIP2 as substrate preincubated for 15 mins followed by substrate addition and measured after 1 hr by HTRF assay
Chain of PI3-kinase p110-delta/p85-alpha (P27986 whole entry, one chain of several): as the sequence (P27986 whole entry) above

[15] = Plasma clearance in Wistar Han rat at 0.05 mg/kg; assay type: ADME, organism-based
[16] = target: cGMP-specific 3',5'-cyclic phosphodiesterase (Homo sapiens, UniProt O76074); experiment: Inhibition of PDE5 (unknown origin)
[17] = Unbound volume of distribution in Wistar Han rat; assay type: ADME; settings: in vivo
[18] = Lipophilicity, log D of the compound; assay type: physicochemical; settings: octanol/water
[19] = target: High affinity cGMP-specific 3',5'-cyclic phosphodiesterase 9A (Homo sapiens, UniProt O76083); experiment: Inhibition of PDE9 (unknown origin)
[20] = target: Phosphodiesterase 7 (Homo sapiens, UniProt Q13946+Q9NP56); experiment: Inhibition of PDE7 (unknown origin); assay type: protein assay
[21] = Volume of distribution in Wistar Han rat; assay type: ADME; settings: in vivo
[22] = Half-life in Wistar Han rat; assay type: ADME; settings: in vivo
[23] = target: T1, Phosphatidylinositol 4,5-bisphosphate 3-kinase catalytic subunit delta isoform; experiment: Inhibition of PI3Kdelta in human whole blood assessed as reduction in anti-CD79b antibody-induced CD69 expression preincubated for 60 mins followed by anti-CD79b antibody stimulation and measured after 3 hrs by FACS analysis; assay type: tissue-based
[24] = Intrinsic clearance in Wistar Han rat at 0.05 mg/kg; assay type: ADME, organism-based; settings: in vivo
[25] = target: T1, Phosphatidylinositol 4,5-bisphosphate 3-kinase catalytic subunit delta isoform; experiment: Inhibition of PI3Kdelta in human whole blood assessed as reduction in antihuman IgE antibody-stimulated CD63 expression preincubated for 30 mins followed by antihuman IgE antibody stimulation and measured after 20 mins by FACS analysis; assay type: tissue-based
[26] = Protein binding in human plasma; assay type: ADME, cell-free; settings: read-out: PPB (converted)
[27] = Volume of distribution in Beagle dog; assay type: ADME, Canis lupus familiaris; settings: in vivo
[28] = Half-life in Beagle dog; assay type: ADME, Canis lupus familiaris; settings: in vivo
[29] = Intrinsic clearance in Beagle dog at 0.05 mg/kg; assay type: ADME, organism-based, Canis lupus familiaris; settings: in vivo
[30] = Plasma clearance in Beagle dog at 0.05 mg/kg; assay type: ADME, organism-based, Canis lupus familiaris
[31] = Oral bioavailability in Wistar Han rat; assay type: ADME, organism-based; settings: in vivo
[32] = Unbound volume of distribution in Beagle dog; assay type: ADME, Canis lupus familiaris; settings: in vivo
[33] = Intrinsic clearance in Wistar Han rat at 0.5 mg/kg, iv or 1 mg/kg, po; assay type: ADME, organism-based; settings: in vivo
[34] = Protein binding in Beagle dog plasma; assay type: ADME, cell-free, Canis lupus familiaris; settings: read-out: PPB (converted)
[35] = organism: Homo sapiens; experiment: Selectivity ratio of IC50 for N-terminal His6-tagged recombinant full length human p110alpha/untagged recombinant full length human p85alpha expressed in baculovirus infected Sf21 insect cells to IC50 for N-terminal His6-tagged recombinant full length human p110delta/untagged recombinant full length human p85alpha expressed in baculovirus infected Sf21 insect cells

Compound | pIC50 [3] | fraction unbound [4] | pIC50 [6] | pIC50 [11] | pIC50 [14] | Vdu [17] [L/kg] | logD [18] | Vd [21] [L/kg] | half-life [22] [min] | further results
CCn1ncc(-c2nc3c(N[C@H]4CCN(C(=O)C5CCOCC5)C4)ncnc3n2C)c1C | 5.04 | 0.52 | 7.46 | 7.80 | 9.30 | 3 | 0.8 | 1.7 | 12 | pIC50 [1]: < 4.70; IC50 [2]: > 20000 nM; clearance [5]: 95 mL/min/kg; IC50 [7]: > 20000 nM; IC50 [8]: > 20000 nM; pIC50 [9]: < 4.70; pIC50 [10]: < 4.70; IC50 [12]: > 20000 nM; pIC50 [13]: < 4.70; clearance [15]: 95 mL/min/kg; pIC50 [16]: < 4.70; pIC50 [19]: < 4.70; IC50 [20]: > 20000 nM
CC[C@H](Nc1ncnc2c1nc(-c1cnn(CC)c1C)n2C)C(=O)N1CCOCC1 |  |  | 6.56 |  |  |  |  |  |  | 
CCC(=O)N1CCC(Nc2ncnc3c2nc(-c2cnn(CC)c2C)n3C)CC1 | < 5.00 |  | 5.92 |  | 6.10 |  |  |  |  | 
CCn1ncc(-c2nc3c(NC4CCN(CC(C)C)C4=O)ncnc3n2C)c1C (racemic) | 5.15 |  | 5.75 | 5.08 | 5.87 |  |  |  |  | 
CCn1ncc(-c2nc3c(N[C@H]4CCN(C(=O)C5CC5)C4)ncnc3n2C)c1C | 5.80 | 0.28 | 7.46 | 7.89 | 9.05 | 4 | 1 | 1.1 | 18 | pIC50 [23]: 7.46; CL [24]: 410 mL/min/kg; pIC50 [25]: 6.48; clearance [15]: 49 mL/min/kg; fraction unbound [26]: 0.45
CCC(=O)N1CCC[C@H](Nc2ncnc3c2nc(-c2cnn(CC)c2C)n3C)C1 | 5.41 |  | 6.47 | 6.51 |  |  |  |  |  | 
CCn1ncc(-c2nc3c(O[C@H]4CCN(C(=O)C5CC5)C4)ncnc3n2C)c1C | 5.13 | 0.33 | 6.77 | 6.72 | 8.28 | 2 | 1.2 | 0.8 | 24 | clearance [5]: 23 mL/min/kg; Vd [27]: 0.9 L/kg; half-life [28]: 162 min; CL [29]: 8 mL/min/kg; clearance [30]: 4.1 mL/min/kg; bioavailability [31]: 52%; Vdu [32]: 2 L/kg; CL [33]: 98 mL/min/kg; fraction unbound [34]: 0.59
CCn1ncc(-c2nc3c(CC4CCN(C(=O)C5CCOCC5)C4)ncnc3n2C)c1C (racemic) | < 5.00 |  | < 5.00 | 5.08 | 6.53 |  |  |  |  | 
CCn1ncc(-c2nc3c(Oc4csc(C(=O)N5CCOCC5)c4)ncnc3n2C)c1C | 5.35 |  | 5.53 | 6.01 | 7.17 |  |  |  |  | 
CCn1ncc(-c2nc3c(NC4CN(C(=O)C5CCOCC5)C4)ncnc3n2C)c1C | < 5.00 |  | 6.34 | 5.56 |  |  |  |  |  | Ratio IC50 [35]: 28
